Reference: US12661355B2, “Compounds and methods for inducing UCP1 expression” (The Regents of the University of California, priority 2020, dated 2026)

Target: T1, AKAP1 (Mus musculus, UniProt O08715)
T1 construct: from tissue; host or cells: mouse brown adipose tissue (BAT) lysate; also mouse brown adipocyte extracts
T1 sequence (O08715 30-857): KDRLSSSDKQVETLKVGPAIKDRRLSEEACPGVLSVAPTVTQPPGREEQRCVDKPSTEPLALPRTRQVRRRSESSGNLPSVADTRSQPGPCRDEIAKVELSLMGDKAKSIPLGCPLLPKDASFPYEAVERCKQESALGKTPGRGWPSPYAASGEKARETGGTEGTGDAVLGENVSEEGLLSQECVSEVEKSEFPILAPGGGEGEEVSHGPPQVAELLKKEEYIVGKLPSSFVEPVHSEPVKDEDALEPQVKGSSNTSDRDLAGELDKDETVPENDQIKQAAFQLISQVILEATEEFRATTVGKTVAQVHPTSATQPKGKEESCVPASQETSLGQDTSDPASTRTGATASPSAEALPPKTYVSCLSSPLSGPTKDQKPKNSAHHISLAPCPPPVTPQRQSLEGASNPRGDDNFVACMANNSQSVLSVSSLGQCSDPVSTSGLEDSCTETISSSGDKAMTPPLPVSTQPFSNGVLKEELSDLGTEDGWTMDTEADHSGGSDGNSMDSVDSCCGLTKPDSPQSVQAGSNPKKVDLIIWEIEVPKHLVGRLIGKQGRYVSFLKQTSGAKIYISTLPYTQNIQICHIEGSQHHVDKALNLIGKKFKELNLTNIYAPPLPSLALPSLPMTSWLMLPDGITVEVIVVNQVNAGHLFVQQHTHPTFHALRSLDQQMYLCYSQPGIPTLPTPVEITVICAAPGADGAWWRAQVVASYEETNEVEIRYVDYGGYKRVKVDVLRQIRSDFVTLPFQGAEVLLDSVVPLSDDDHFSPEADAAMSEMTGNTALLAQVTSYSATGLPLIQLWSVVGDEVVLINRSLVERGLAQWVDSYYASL
Assay: Drug Affinity Responsive Target Stability (DARTS) in BAT or brown adipocyte extracts, AKAP1
Format: binding
Details: 1 h; for effect on AKAP1 (pronase susceptibility): mouse brown adipocyte extracts, 20 μM (CL316,243 20 nM)
Experimental: […] assays were performed according to known methods. Briefly, BAT or cells within a 10 cm dish were lysed with 600 μl M-PER buffer containing protease and phosphatase inhibitors. Debris was pelleted by centrifugation at 18,000 g for 10 min at 4° C., and the lysates were harvested and supplemented with TNC buffer (50 mM Tris-HCl, 50 mM NaCl, 10 mM CaCl2). The lysates were split into two tubes and treated with either vehicle or 20 μM Z160 for 1 h at room temperature. For experiment with BAT, 100 μg of lysate was incubated with different Z160 concentrations. Different concentrations of pronase (from 1:100 to 1:10,000 dilution from a 1.25 mg/ml pronase stock) were incubated with the samples for 30 min at room temperature and the reaction was stopped with SDS loading buffer followed immediately by heating at 70° C. for 10 min. Protein lysates were separated by SDS-PAGE and transferred to a nitrocellulose membrane. After blocking in 5% milk, 0.1% Tween-20 in Tris-buffered saline (TBS), primary antibody was incubated overnight at 4° C. in 5% bovine serum albumin and 0.1% Tween-20 in TBS. Primary antibodies against AKAP1 (5203, Cell Signaling), AKAP13 (39715, One World Lab), GAPDH (GTX100118, Genetex), OPA1 (39557, One World Lab), PKA C-α (4782, Cell Signaling), PKA RII-β (ab75993, Abcam), were used at 1:2000. A goat anti-rabbit secondary antibody (sc-2030, Santa Cruz Biotechnology, Inc) was used at a 1:10,000 dilution for 1 h at room temperature in 5% milk and 0.1% Tween-20 in TBS.
The PKA tetramer consists of two catalytic and two regulatory subunits. In the mouse, these are catalytic subunits C-α and C-β, and regulatory subunits RI and RII, each with α and β isoforms (RI-α, RI-β, RII-α, RII-β). PKA is also bound to a family of anchoring proteins, A-kinase anchoring proteins (AKAPs), which allow the compartmentalization of cAMP signaling. To investigate whether Z160 binds PKA complex proteins, two techniques were applied both of which rely on ligand-induced alterations in protein stability: Cellular Thermal Shift Assay (CETSA) and Drug Affinity Responsive Target Stability (DARTS). CETSA is based on the principle that ligand binding will change the temperature at which a protein starts to unfold and aggregate, while DARTS relies on the protection of a protein from proteolysis upon specific binding to a small molecule.
To provide further evidence for an interaction between Z160 and AKAP1, DARTS assays were employed. Lysates from brown fat were treated with different Z160 concentrations for 1 h followed by pronase digestion and immunoblotting. […] The effect of Z160 on AKAP1 was confirmed using mouse brown adipocyte extracts (FIG. 15A).

Row | SMILES | effect on AKAP1 (pronase susceptibility) | pronase susceptibility of AKAP1 (brown fat lysates, pronase 1:4000)
1 | O=C(CSc1nc2ccccc2c(=O)[nH]1)Nc1ccc2c(c1)OCCO2 [AST070, N-(2,3-dihydro-1,4-benzodioxin-6-yl)-2-[(4-oxo-3,4-dihydroquinazolin-2-yl)sulfanyl]acetamide] | effect of AST070 or Z160 on AKAP1 | 
2 | COc1ccc(NC(=O)CSc2nc3ccccc3c(=O)[nH]2)c(OC)c1 [Z160] | confirmed | altered pronase susceptibility
